# From patent publication US10562912B2 (C&C Research Laboratories, priority 2013, dated 2020)
# Legend:
# Assay type in all cases: cell-based
# LNCaP = assay: Cell growth inhibition assay, prostate cancer cell line LNCaP (medium with 10 ng/mL IL-6); details: Homo sapiens, medium supplemented with 10 ng/mL of IL-6, 10,000 cells/well
# HEL92.1.7 = assay: Cell growth inhibition assay, blood cancer cell line HEL92.1.7; details: Homo sapiens, HEL 92.1.7, HEL92.1.7 blood cancer cell line
# Method in brief: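 Cells were seeded at 3,000/well (HCT116, DU-145) or 5,000/well (SW626 and the others) and exposed to serial compound dilutions for 72 to 96 h at 37 °C under 5% CO2. Viability was read as CellTiter-Glo luminescence against 0.1% DMSO and cell-free wells.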
# STAT3 = target: T1, STAT3 (Homo sapiens, UniProt P40763); assay: STAT3 reporter gene assay (luciferase), LNCaP stable cell line (pSTAT3-TA-luc), IL-6 stimulation
# T1 construct: plasmid pSTAT3-TA-luc), which contains a stably operating STAT3 promoter; endogenous in cells
# Method in brief: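 LNCaP cells stably carrying pSTAT3-TA-luc, in RPMI1640 with 3% DCC-FBS, were treated with compound and then stimulated with 10 ng/mL IL-6 for 24–48 h at 37 °C. Luciferase activity was measured in lysates. A parallel plate measured viability by CellTiter-Glo, with stimulated 0.1% DMSO wells as the positive control.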
# DU-145 = assay: Cell growth inhibition assay, prostate cancer cell line DU-145; details: Homo sapiens, DU-145 prostate cancer cell line
# Method in brief: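 Readout was CellTiter-Glo luminescence after 72–96 h of compound exposure at 37 °C, 5% CO2. Plating density was 3,000 cells/well for DU-145 and HCT116 and 5,000 cells/well for SW626. Controls were 0.1% DMSO wells and medium-only wells.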
# T1 sequence (P40763 whole entry): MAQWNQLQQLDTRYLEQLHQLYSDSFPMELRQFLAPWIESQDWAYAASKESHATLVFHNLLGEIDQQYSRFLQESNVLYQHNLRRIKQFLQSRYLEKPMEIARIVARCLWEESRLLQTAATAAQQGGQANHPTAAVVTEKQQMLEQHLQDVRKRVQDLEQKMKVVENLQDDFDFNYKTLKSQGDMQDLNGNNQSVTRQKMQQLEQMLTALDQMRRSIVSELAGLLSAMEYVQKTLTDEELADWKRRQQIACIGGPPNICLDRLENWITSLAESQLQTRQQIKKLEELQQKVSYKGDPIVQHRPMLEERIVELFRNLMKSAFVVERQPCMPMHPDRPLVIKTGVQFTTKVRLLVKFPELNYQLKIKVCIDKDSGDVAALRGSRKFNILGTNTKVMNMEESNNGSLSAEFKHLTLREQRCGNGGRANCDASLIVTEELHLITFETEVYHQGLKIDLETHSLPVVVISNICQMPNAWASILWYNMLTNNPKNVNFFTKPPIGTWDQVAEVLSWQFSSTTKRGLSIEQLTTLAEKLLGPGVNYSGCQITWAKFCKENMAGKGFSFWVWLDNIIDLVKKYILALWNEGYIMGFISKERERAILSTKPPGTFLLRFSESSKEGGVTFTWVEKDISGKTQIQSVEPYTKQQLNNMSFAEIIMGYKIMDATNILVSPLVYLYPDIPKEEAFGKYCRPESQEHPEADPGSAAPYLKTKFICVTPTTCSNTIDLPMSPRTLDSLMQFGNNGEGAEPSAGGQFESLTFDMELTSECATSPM
IC50 (LNCaP),IC50 (HEL92.1.7),IC50 (STAT3),IC50 (DU-145),SMILES
0.014 µM,0.013 µM,0.007 µM,0.007 µM,"CCS(=O)(=O)Nc1ccc2sc(C(=O)Nc3cc(Cl)cc(C(C)(C)c4cc(OC(C)C)cc(OC(F)(F)F)c4)c3)cc2c1 [Example 202, N-(3-chloro-5-(2-(3-isopropoxy-5-(trifluoromethoxy)phenyl)propan-2-yl)phenyl)-5-(ethylsulfonamido)benzo[b]thiophene-2-carboxamide]"
0.023 µM,0.017 µM,0.006 µM,0.008 µM,"CC(C)Oc1cc(OC(F)(F)F)cc(C(C)(C)c2cc(Cl)cc(NC(=O)c3cc4cc(NS(=O)(=O)C(C)C)ccc4s3)c2)c1 [Example 203, N-(3-chloro-5-(2-(3-isopropoxy-5-(trifluoromethoxy)phenyl)propan-2-yl)phenyl)-5-((1-methylethyl)sulfonamido)benzo[b]thiophene-2-carboxamide]"
0.095 µM,0.05 µM,0.051 µM,0.017 µM,"CC(C)Oc1cc(OC(F)(F)F)cc(C(C)(C)c2cc(Cl)cc(NC(=O)c3cc4cc(NS(=O)(=O)C5CCOC5)ccc4s3)c2)c1 (stereo not drawn) [Example 204, N-(3-chloro-5-(2-(3-isopropoxy-5-(trifluoromethoxy)phenyl)propan-2-yl)phenyl)-5-((tetrahydrofuran)-3-sulfonamido)benzo[b]thiophene-2-carboxamide]"
0.31 µM,0.58 µM,0.3 µM,0.063 µM,"CC(C)Oc1cc(OC(F)(F)F)cc(C(C)(C)c2cc(Cl)cc(NC(=O)c3cc4cc(NS(=O)(=O)C5CCS(=O)(=O)CC5)ccc4s3)c2)c1 [Example 205, N-(3-chloro-5-(2-(3-isopropoxy-5-(trifluoromethoxy)phenyl)propan-2-yl)phenyl)-5-((1,1-dioxidotetrahydro-2H-thiopyran)-4-sulfonamido)benzo[b]thiophene-2-carboxamide]"
0.19 µM,0.35 µM,0.19 µM,0.051 µM,"CC(=O)N1CCC(S(=O)(=O)Nc2ccc3sc(C(=O)Nc4cc(Cl)cc(C(C)(C)c5cc(OC(C)C)cc(OC(F)(F)F)c5)c4)cc3c2)CC1 [Example 206, 5-((1-acetylpiperidine)-4-sulfonamido)-N-(3-chloro-5-(2-(3-isopropoxy-5-(trifluoromethoxy)phenyl)propan-2-yl)phenyl)benzo[b]thiophene-2-carboxamide]"

# The remaining lines, values behind:
SMILES,IC50 (LNCaP),IC50 (HEL92.1.7),IC50 (STAT3),IC50 (DU-145)
"CC(C)Oc1cc(OC(F)(F)F)cc(C(C)(C)c2cc(Cl)cc(NC(=O)c3cc4cc(NS(=O)(=O)c5ccn(C)n5)ccc4s3)c2)c1 [Example 200, N-(3-chloro-5-(2-(3-isopropoxy-5-(trifluoromethoxy)phenyl)propan-2-yl)phenyl)-5-((1-methyl-1H-pyrazole)-3-sulfonamido)benzo[b]thiophene-2-carboxamide]",0.28 µM,0.3 µM,0.069 µM,0.19 µM
"CC(C)Oc1cc(OC(F)(F)F)cc(C(C)(C)c2cc(Cl)cc(NC(=O)c3cc4cc(NS(=O)(=O)c5cnn(C)c5)ccc4s3)c2)c1 [Example 201, N-(3-chloro-5-(2-(3-isopropoxy-5-(trifluoromethoxy)phenyl)propan-2-yl)phenyl)-5-((1-methyl-1H-pyrazole)-4-sulfonamido)benzo[b]thiophene-2-carboxamide]",0.064 µM,0.053 µM,0.029 µM,0.018 µM
"C=CS(=O)(=O)Nc1ccc2sc(C(=O)Nc3cc(Cl)cc(C(C)(C)c4cc(OC(C)C)cc(OC(F)(F)F)c4)c3)cc2c1 [Example 207, N-(3-chloro-5-(2-(3-isopropoxy-5-(trifluoromethoxy)phenyl)propan-2-yl)phenyl)-5-(vinylsulfonamido)benzo[b]thiophene-2-carboxamide]",> 1.1 µM,> 1.1 µM,3 µM,> 1.1 µM
"CC(C)Oc1cc(OC(F)(F)F)cc(C(C)(C)c2cc(Cl)cc(NC(=O)c3cc4cc(NS(=O)(=O)CCN(C)C)ccc4s3)c2)c1 [Example 208, N-(3-chloro-5-(2-(3-isopropoxy-5-(trifluoromethoxy)phenyl)propan-2-yl)phenyl)-5-((2-(dimethylamino)ethyl)sulfonamido)benzo[b]thiophene-2-carboxamide]",0.22 µM,0.33 µM,0.17 µM,0.08 µM
"CC(C)Oc1cc(OC(F)(F)F)cc(C(C)(C)c2cc(Cl)cc(NC(=O)c3cc4cc(NS(=O)(=O)CCN5CCOCC5)ccc4s3)c2)c1 [Example 209, N-(3-chloro-5-(2-(3-isopropoxy-5-(trifluoromethoxy)phenyl)propan-2-yl)phenyl)-5-((2-morpholinoethyl)sulfonamido)benzo[b]thiophene-2-carboxamide]",0.053 µM,0.099 µM,0.043 µM,0.027 µM
"CC(C)Oc1cc(OC(F)(F)F)cc(C(C)(C)c2cc(Cl)cc(NC(=O)c3cc4cc(NS(=O)(=O)CCN(C)O)ccc4s3)c2)c1 [Example 210, N-(3-chloro-5-(2-(3-isopropoxy-5-(trifluoromethoxy)phenyl)propan-2-yl)phenyl)-5-((2-(hydroxy(methyl)amino)ethyl)sulfonamido)benzo[b]thiophene-2-carboxamide]",0.28 µM,0.57 µM,0.14 µM,0.073 µM
"CC(C)Oc1cc(OC(F)(F)F)cc(C(C)(C)c2cc(Cl)cc(NC(=O)c3cc4cc(N5CCCCS5(=O)=O)ccc4s3)c2)c1 [Example 211, N-(3-chloro-5-(2-(3-isopropoxy-5-(trifluoromethoxy)phenyl)propan-2-yl)phenyl)-5-(1,1-dioxido-1,2-thiazinan-2-yl)benzo[b]thiophene-2-carboxamide]",0.05 µM,0.066 µM,0.007 µM,0.014 µM
"CC(C)Oc1cc(OC(F)(F)F)cc(C(C)(C)c2cc(Cl)cc(NC(=O)c3cc4cc(N5CCCS5(=O)=O)ccc4s3)c2)c1 [Example 212, N-(3-chloro-5-(2-(3-isopropoxy-5-(trifluoromethoxy)phenyl)propan-2-yl)phenyl)-5-(1,1-dioxidoisothiazolidin-2-yl)benzo[b]thiophene-2-carboxamide]",0.075 µM,0.081 µM,0.01 µM,0.022 µM
"CC(C)Oc1cc(OC(F)(F)F)cc(C(C)(C)c2cc(I)cc(NC(=O)c3sc4ccc(NS(C)(=O)=O)cc4c3I)c2)c1 [Example 214, 3-iodo-N-(3-iodo-5-(2-(3-isopropoxy-5-(trifluoromethoxy)phenyl)propan-2-yl)phenyl)-5-(methylsulfonamido)benzo[b]thiophene-2-carboxamide]",0.99 µM,> 1.1 µM,0.17 µM,0.3 µM
"CC(C)Oc1cc(OC(F)(F)F)cc(C(C)(C)c2cc(Cl)cc(NC(=O)c3cc4cc(N(C)S(C)(=O)=O)c(F)cc4s3)c2)c1 [Example 215, N-(3-chloro-5-(2-(3-isopropoxy-5-(trifluoromethoxy)phenyl)propan-2-yl)phenyl)-6-fluoro-5-(N-methylmethylsulfonamido)benzo[b]thiophene-2-carboxamide]",0.006 µM,0.007 µM,0.002 µM,0.002 µM
